Test results: patent US20110313044A1, “Polymorphs of Suberoylanilide Hydroxamic Acid” (URQUIMA S.A., priority 2010, published 2011)
Values after ≈ are worked out from the molar mass of the structure shown.

Experiments:
[1] = physchem; settings: thermodynamic from solid
[2] = Physical stability of crystalline forms at room temperature (PXRD, DSC characterisation)
Text: The crystalline products obtained have been characterised by XPRD (FIG. 1 and Table 1) and DSC (FIG. 2).

[3] = Hygroscopicity test; assay type: physicochemical
[4] = Solubility test Form α vs Form I; settings: for solubility: thermodynamic from solid

SMILES: O=C(CCCCCCC(=O)Nc1ccccc1)NO [Form I, suberoylanilide hydroxamic acid]
- solubility ([1]; aqueous buffer): 0.1 mg/mL (≈ 0.378 mM)
- solubility ([1]; organic solvent or mixture): 21.8 mg/mL (≈ 82.5 mM)

SMILES: O=C(CCCCCCC(=O)Nc1ccccc1)NO [Form II, suberoylanilide hydroxamic acid]
- Polymorph stability [2]: unstable at room temperature

SMILES: O=C(CCCCCCC(=O)Nc1ccccc1)NO [Form III, suberoylanilide hydroxamic acid]
- Polymorph stability [2]: stable at room temperature

SMILES: O=C(CCCCCCC(=O)Nc1ccccc1)NO [Form α, suberoylanilide hydroxamic acid]
- Polymorph stability [2]: stable at room temperature
- Hygroscopicity [3]: non-hygroscopic
- solubility ([4]; HCl 2M, aqueous buffer): 0.19 mg/mL (≈ 0.719 mM)
- Solubility versus Form I ([4]; methanol and HCl 2M, in words): higher solubility
- solubility ([4]; methanol, organic solvent or mixture): 30 mg/mL (≈ 113 mM)
